In US20250381269A1, “BISPECIFIC ANTIBODY BINDING EGFR AND B7-H3” (FORTVITA BIOLOGICS (SINGAPORE) PTE. LTD., priority 2022, published 2025):

Columns and labels:
H1703 = test: Proliferation inhibition experiment, H1703 (NSCLC); type: cell-based; conditions: H1703, EGFR Amplification, KRAS WT
Procedure: (§1) • (1) NSCLC: plated at 1500-2500 cells/100 μL in a 96-well low-adsorption plate (Corning, CLS7007-24EA) for 3D cell culture, in which the following cell lines and specific amounts were used: • NSCLC: 2000 cells/100 μL/well • NCI-H292: Cell Bank of the Chinese Academy of Sciences, SCSP-582 • NCI-H322: Cobioer, CBP60134 • NCI-H1650: ATCC, CRL-5883 • NCI-H1975: ATCC, CRL-5908 • SK-MES-1: CoBioer, CBP60152 • NCI-H1703: ATCC, HTB-43 • PC9+hB7H3: constructed as described above • CRC and HNSCC: plated at 1500-2000 cells/100 μL in a 96-well white-bottom plate (NUNC, 136101) for 2D cell culture, in which the following cell lines and specific amounts were used: • CRC: 1500 cells/100 μL/well • CCK-81: CoBioer, CBP60581 • HT-55: CoBioer, CBP60012 • H508: CoBioer, CBP60795 • LS180: CoBioer, CBP60034 • HNSCC: 1500 cells/100 μL/well • TE-1: CoBioer, CBP60655 • Colo680: CoBioer, CBP60452. (2) The antibody molecules prepared in advance by dilution were added to the corresponding cell well plate, mixed well, and cultured in an incubator at 37° C. with 5% CO2 for 5 days. • (3) After 5 days of continuous culture for proliferation inhibition assay, the Cell-Titer reagent (Promega, G7572) prepared in advance was added to cell wells, the plate was left to stand at room temperature for 15-25 min in the dark, and then CRC and HNSCC cells were directly detected by a multimode microplate reader (Molecular Devices, Spectra MAXi3). • (4) NSCLC: Cell-Titer and the cell mixture were transferred to a 96-well white-bottom plate (NUNC, 136101) and detected by a multimode microplate reader (Molecular Devices, Spectra MAXi3).

H358 = test: ADCC report assay, H358; type: cell-based; conditions: EGFR WT, KRAS G12C, effector/target 10:1, 20 h
Procedure: (§2) In the ADCC report assay, ADCC effector cells ((Promega, G7102)) are engineered cells in which FcRIIIa (V158) receptor is overexpressed into Jurkat T cells, which rapidly respond to ADCC through the NFAT-RE driving element within the Jurkat T cells.
(§3) • (1) Tumor cells (cell lines listed in Table 3) and ADCC effector cells (Promega, G7102) were mixed well (1.5E4 cells: 1.5E5 cells/well/100 μL (1.5E5: 1.5E6 cells/mL)) according to an effector/target ratio (10:1), and added to a 96-well white plate (NUNC, 136101). • (2) The antibody molecules prepared in advance by dilution were added to the corresponding cell well plates, mixed well, and cultured at 37° C. with 5% CO2 for 20 h. • (3) The Bio-glo reagent (Promega, G755B) prepared in advance was added to the cell well plate, the plate was left to stand at room temperature for 10-15 min in the dark, and then the cells were detected by a multimode microplate reader (Molecular Devices, Spectra MAXi3).

TE-1 = test: Proliferation inhibition experiment, TE-1 (HNSCC); type: cell-based; conditions: EGFR WT, KRAS WT
Procedure: as §1

[1] = test system: SK-MES-1 tumor-bearing mice; test: Anti-tumor efficacy in SK-MES-1 tumor-bearing mice, 1 mg/kg single dose; type: in vivo; conditions: SK-MES-1, Balb/c Nude mice, day 24; for Tumor volume (mm^3): 1 mg/kg i.p. single dose on day 6; for Complete response rate / Tumor growth inhibition (%): 1 mg/kg i.p. single dose; for Complete response rate: 7 mice per group; for Tumor growth inhibition (%): vs h-IgG 1 mg/kg
From the text: SPF female Balb/c Nude mice (purchased from Beijing Vital River Laboratory Animal Technology Co., Ltd.) with certificate No. 110011211108966881 were used in the experiment.
SK-MES-1 cells were routinely subcultured for the subsequent in-vivo experiment. The cells were collected by centrifugation. Then the SK-MES-1 cells were resuspended in an equal-proportion mixture of PBS (1×) and Matrigel Matrix (Corning) to prepare a cell suspension with a cell concentration of 20×10^6 cells/mL. On day 0, 0.2 mL of the cell suspension was taken and subcutaneously inoculated to the right abdominal area of Balb/c Nude mice to establish SK-MES-1 tumor-bearing mouse models.
Six days after the tumor cell inoculation, the tumor volume in each mouse was measured. The mice were grouped (with 7 mice in each group).
Administration was performed once on day 6 after the inoculation of SK-MES-1 cells. Mice were monitored for tumor volume and body weight twice a week.
Tumor volume measurement: The maximum length of major axis (L) and maximum length of minor axis (W) of tumors were measured with a vernier caliper, and tumor volume was calculated by the following formula: V=L×W^2/2. The mice were weighed using an electronic balance.

H1650 [2] = test: Proliferation inhibition experiment, H1650 (NSCLC); type: cell-based; conditions: EGFR Amplification Del19, KRAS WT
Procedure: as §1

Colo-680N = test: Proliferation inhibition experiment, Colo-680N (HNSCC); type: cell-based; conditions: EGFR WT, KRAS WT
Procedure: as §1

H322 = test: ADCC report assay, H322; type: cell-based; conditions: EGFR WT, KRAS WT, effector/target 10:1, 20 h
Procedure: as §2, §3

H292 = test: ADCC report assay, H292; type: cell-based; conditions: EGFR WT, KRAS WT, effector/target 10:1, 20 h
Procedure: as §2, §3

H1650 [3] = test: ADCC report assay, H1650; type: cell-based; conditions: EGFR Amplification Del19, KRAS WT, effector/target 10:1, 20 h
Procedure: as §2, §3

SK-MES-1 = test: ADCC report assay, SK-MES-1; type: cell-based; conditions: EGFR Amplification, KRAS WT, effector/target 10:1, 20 h
Procedure: as §2, §3

| Substance | Max inhibition (%) Mean ± SD (H1703) [%] | IC50 (H1703; 3D culture, 5 days) [nM] | EC50 (H358) [nM] | Max inhibition (%) Mean ± SD (TE-1) [%] | IC50 (TE-1; 2D culture, 5 days) [nM] | Tumor volume (mm^3) [1] [mm^3] | Complete response rate [1] | Tumor growth inhibition (%) [1] [%] | Max inhibition (%) Mean ± SD (H1650 [2]) [%] | IC50 (H1650 [2]; 3D culture, 5 days) [nM] | Max inhibition (%) Mean ± SD (Colo-680N) [%] | IC50 (Colo-680N; 2D culture, 5 days) [nM] | EC50 (H322) [nM] | EC50 (H292) [nM] | EC50 (H1650 [3]) [nM] | EC50 (SK-MES-1) [nM] |
| --- | --- | --- | --- | --- | --- | --- | --- | --- | --- | --- | --- | --- | --- | --- | --- | --- |
| amivantamab [JNJ372] | 44.3 ± 3.4 | 0.7 | 0.018 | 32.2 ± 4.7 | 570 | 87 | 0/7 | 122 | 31.0 ± 1.4 | 20.6 | 26.5 ± 2.2 | 25.5 | 0.106 | 0.083 | 0.102 | 0.144 |
| zalutumumab [Zalu mAb] | 45.6 ± 3.8 |  | 0.004 | 42.2 ± 1.1 |  | 23 | 2/7 | 145 | 26.8 ± 2.6 |  | 24.9 ± 1.1 |  | 0.006 | 0.009 | 0.021 | 0.011 |
